Tests used:
[1] = test system: p100/p120; assay: p100/p120 electrophoretic mobility, LLC-PK1 cells; type: cell-based, porcine; details: 200 nM PDB, 30 minutes
Protocol: (§1) p100 and p120 electrophoretic mobility is affected by PDB in a number of different epithelial cell lines. LLC-PK1, (a porcine kidney cell line), MDCK strain II cells and gut-derived Caco-2 cells were treated with or without 200 nM PDB for 30 minutes, lysed into Laemmli sample buffer, separated by electrophoresis and analysed by immunoblotting.
(§2) MDCK strain I and II cells were provided by Barry Gumbiner (memorial Sloan-Kettering Cancer Center, NY). LLC-PK1 and Caco-2 cells were obtained from the European Collection of Animal Cell Cultures. All cells were maintained at 37° C. under 5% CO2 in humidified air. MDCK strain I and II cells were maintained in MEM containing 10% FCS, 100 U/ml penicillin, 100 μg/ml streptomycin and 2 mM L-glutamine. Caco-2 cells were maintained in MEM containing 15% FCS, 1% non-essential amino acids and 1 μg/ml bovine insulin (Sigma I-6634). LLC-PK1 cells were grown in M199 (Gibco), 10% FCS, 100 U/ml penicillin, 100 μg/ml streptomycin and 2 mM L-glutamine. For whole cell lysate analysis, 10^5 cells were plated on 6.5 mm diameter, 0.4 μm, polycarbonate Transwell filters from Costar, in 0.25 ml of medium. The basolateral chamber contained 0.75 ml of medium. For immunoprecipitation, 5×10^5 cells were plated onto 24 mm Transwell filters, in 2 ml of medium, with 3 ml of medium in the lower chamber. Cells were used 4-7 days after plating. […]

[2] = test system: p100/p120; assay: phosphoamino acid (PAA) analysis of p100/p120, MDCK I cells; type: cell-based; details: PDB treatment
Protocol: Following phosphate labelling, immunoprecipitation and visualisation of p100/p120 as in panel A above, the levels of p100/p120 protein were determined by immunoblotting. Thus it could be ascertained that approximately equal amounts of protein from PDB-treated and untreated cells were used for the PAA analysis. The p100/p120 bands were excised, and the proteins hydrolysed into their constituent amino acids by boiling in 5.7 M HCl. PAAs were then separated by two-dimensional electrophoresis, and detected by autoradiography. p100/p120 from control cells contains mainly phosphoserine (S), some phosphothreonine (T) and no detectable phosphotyrosine (Y). Following PDB treatment, both phosphoserine and phosphothreonine levels are reduced.
For phosphoamino acid (PAA) analysis, MDCK I cells were labelled as above with [^32P]orthophosphate, and the p100 and p120 extracted from PDB-treated or untreated cells by immunoprecipitation (as above). Following transfer to Immobilon P, and immunoblotting to assess recovery of protein, the area of the filter containing p100 and p120 was excised. The proteins were hydrolysed at 110° C. for one hour in 5.7 M HCl to release PAAs. Following lyophilisation, two dimensional PAA separation and detection was carried out as previously described (Boyle et al., 1991).

[3] = test system: p100/p120; assay: p100/p120 electrophoretic mobility, human umbilical vein endothelial cells (HUVECs); type: cell-based; details: HUVEC, 5 minutes; histamine 10 μM, PDB 200 nM
[4] = test system: p100/p120; assay: p100/p120 electrophoretic mobility, MDCK strain II cells; type: cell-based; details: 200 nM PDB, 30 minutes
Protocol: as §1, §2

CCCC(=O)O[C@@H]1[C@@H](C)[C@@]2(O)[C@@H](C=C(CO)C[C@]3(O)C(=O)C(C)=C[C@@H]23)[C@@H]2C(C)(C)[C@]12OC(=O)CCC [PDB, Phorbol-12,13-dibutyrate]
migration of p100 and p120 [1]: increased markedly | phosphoserine and phosphothreonine levels of p100/p120 [2]: reduced | reduction in phosphate signal (PAA densitometry) [2]: approximately 40% | mobility of p120 and p100 [3]: increased mobility | migration of p100 and p120 [4]: increased markedly

Source: patent US6407058B1, “Modifying the permeability of physiological barriers” (Eisai Co., Limited, priority 1996, dated 2002)
